Measured values from patent US20220249352A1, “MICROPARTICLES BASED ON ESTER DERIVATIVES OF HYALURONAN, METHOD OF PRODUCTION, COMPOSITION COMPRISING THEREOF AND USE THEREOF” (CONTIPRO A.S., priority 2019, published 2022).

Tests used:
[1] = test system: HMGCS1 mRNA expression in HaCaT keratinocyte cells; test: Expression of cholesterol synthesis gene HMGCS1 (QRT-PCR); type: cell-based; conditions: HaCaT keratinocytes, 48 hours
Experimental: (§1) This example illustrates the expressional changes in keratinocyte cholesterol metabolism pathway components (upon treatment with HA−ATRA (prepared as described in examples 5, 9), unbound ATRA and HA (HA+ATRA), hyaluronan (HA), untreated control (CTRL), retinoic isomers (13-cis-RET) and 9 cis (9-cis-RET). The HaCaT keratinocyte cells were individually treated with the compounds described below for 48 hours and sampled in the indicated times. The mRNA expression of HMGCS1, SQLE and DHRS3 was analyzed with quantitative real-time PCR (QRT-PCR) using a StepOnePlus (ThermoFisher, Waltham, Mass., USA). Briefly, 500 ng of total RNA was transcribed to cDNA (High-Capacity cDNA Reverse Transcription Kit, ThermoFisher, Waltham, Mass., USA). Approximately 5 ng of cDNA was used for QRT-PCR reaction in 10 μl volume. The TaqMan assays (all from ThermoFisher, Waltham, Mass., USA) used were: HMGCS1 (Hs00940429_m1), SQLE (Hs01123768_m1), DHRS3 (Hs01044021_m1) and RPL13A (Hs04194366_g1). Duplicate reaction tubes were set up for each sample. All expression values for HMGCS1, SQLE and DHRS3 were related to the amount of the housekeeping gene RPL13A to correct for variations in RNA levels and efficiency in cDNA synthesis. Regarding the analyzed enzyme involved in cholesterol synthesis, only treatment with microparticles of HA−ATRA increased the expression of HMGCS1 and SQLE, all samples containing retinoids increased expression of positive control DHRS3 (FIG. 10). However, microparticles HA−ATRA can upregulate cholesterol synthesis gene HMGCS1 like when the molarity of the retinoic acid bound to HA is the same in both treatments, this is shown in FIG. 11.

[2] = test system: SQLE mRNA expression in HaCaT keratinocyte cells; test: Expression of cholesterol synthesis gene SQLE (QRT-PCR); type: cell-based; conditions: HaCaT keratinocytes, 48 hours
Experimental: as §1

[3] = Thermogravimetric analysis (TGA), thermal decomposition; type: physicochemical
Experimental: In this disclosure, it is further reported that the amount of active ATRA is conserved after four weeks of storage at 40° C., in the absence of any further toxic antioxidant, which is an advantage to the previously reported art such as US 20190015366 A1 and WO2015092602A1, that require the presence of the toxic benzoyl peroxide, which have been reported as an inductor of photo-carcinogenesis in hairless mice after solar radiation. Similar art was reported in US20100166852A1. In the present embodiments, the microparticles made of HA−ATRA were stored for prolonged times in the presence of air the microparticles are stable, while the obtained powders degraded faster (FIGS. 2 and 4). […] In this disclosure, the thermal decomposition of the HA−ATRA microparticles was compared with the native polysaccharide and pure retinoic acid using thermogravimetric analysis (TGA) according to de Mendonça CMS, de Barros Lima IP, Aragão CFS, Gomes APB in Thermal compatibility between hydroquinone and retinoic acid in pharmaceutical formulations. Journal of Thermal Analysis and calorimetry 2014; 115:2277-85.
In brief, the TGA (Thermogravimetric analyses) was performed on the microparticles on a […]. About 2 mg of powder was accurately weighed samples were loaded into aluminum pans and analyzed. […]

temperature range of decomposition (three stages, TG curve) [3]	SMILES	expression of HMGCS1 [1]	expression of SQLE [2]
	CC1=C(/C=C/C(C)=C\C=C\C(C)=C\C(=O)O)C(C)(C)CCC1 [9-cis retinoic, 9-cis retinoic acid]	neither unbound 9-cis retinoic nor 13-cis retinoic acid were able to upregulate	neither unbound 9-cis retinoic nor 13-cis retinoic acid were able to upregulate
	CC1=C(/C=C/C(C)=C/C=C/C(C)=C\C(=O)O)C(C)(C)CCC1 [13-cis retinoic acid]	neither unbound 9-cis retinoic nor 13-cis retinoic acid were able to upregulate	neither unbound 9-cis retinoic nor 13-cis retinoic acid were able to upregulate
185−609 °C	CC(C=CC1=C(C)CCCC1(C)C)=CC=CC(C)=CC(=O)O [ATRA, 3,7-dimethyl-9-(2,6,6-trimethyl-1-cyclohexene-1-yl)-2,4,6,8-nonatetraenoic acid]	did not induce	did not induce
